Measured values taken from PMC11882969 (Nature Communications, 2025).
Several values for one entry are separate records, joined by “and”; a condition that tells them apart may be missing. Equal values may be shown once.

Tests used:
[1] = biological target: panel of 320 non-olfactory GPCRs (Homo sapiens, UniProt O15552); type: cell-based
[2] = biological target: panel of 320 non-olfactory GPCRs (Homo sapiens, UniProt O95838); type: cell-based
[3] = biological target: panel of 320 non-olfactory GPCRs (Homo sapiens, UniProt P0DMS8); type: cell-based
[4] = biological target: panel of 320 non-olfactory GPCRs (Homo sapiens, UniProt P25105); type: cell-based
[5] = biological target: panel of 320 non-olfactory GPCRs (Homo sapiens, UniProt P25106); type: cell-based
[6] = biological target: panel of 320 non-olfactory GPCRs (Homo sapiens, UniProt P28335, I156V/I160V); type: cell-based
[7] = biological target: panel of 320 non-olfactory GPCRs (Homo sapiens, UniProt P30872); type: cell-based
[8] = biological target: panel of 320 non-olfactory GPCRs (Homo sapiens, UniProt P35367); type: cell-based
[9] = biological target: panel of 320 non-olfactory GPCRs (Homo sapiens, UniProt P35414); type: cell-based
[10] = biological target: panel of 320 non-olfactory GPCRs (Homo sapiens, UniProt P46089); type: cell-based
[11] = biological target: panel of 320 non-olfactory GPCRs (Homo sapiens, UniProt P49190); type: cell-based
[12] = biological target: panel of 320 non-olfactory GPCRs (Homo sapiens, UniProt P51679); type: cell-based
[13] = biological target: panel of 320 non-olfactory GPCRs (Homo sapiens, UniProt Q15077); type: cell-based
[14] = biological target: panel of 320 non-olfactory GPCRs (Homo sapiens, UniProt Q5T6X5); type: cell-based
[15] = biological target: panel of 320 non-olfactory GPCRs (Homo sapiens, UniProt Q86VZ1); type: cell-based
[16] = biological target: panel of 320 non-olfactory GPCRs (Homo sapiens, UniProt Q96RI9); type: cell-based
[17] = biological target: panel of 320 non-olfactory GPCRs (Homo sapiens, UniProt Q99679); type: cell-based
[18] = biological target: panel of 320 non-olfactory GPCRs (Homo sapiens, UniProt Q9GZN0); type: cell-based
[19] = biological target: panel of 320 non-olfactory GPCRs (Homo sapiens, UniProt Q9NS75); type: cell-based
[20] = biological target: panel of 320 non-olfactory GPCRs (Homo sapiens, UniProt Q9UNW8); type: cell-based
[21] = biological target: panel of 320 non-olfactory GPCRs (Homo sapiens, UniProt Q9Y5Y4); type: cell-based
[22] = tested on: mice; experiment: Hot plate, 52 °C; type: in vivo, mouse
[23] = tested on: mice; experiment: Acetone test, cold allodynia after spared nerve injury; type: in vivo, mouse
Description: Mice were placed on a wire mesh and thirty min after an i.p. injection of the compounds we applied a drop (50 μL) of acetone on the ventral aspect of the hindpaw, 5 times every 30 sec. We recorded the number of nocifensive behaviors (paw lifts/licks/shakes/bites) over the 5 applications.

[24] = tested on: mice; experiment: Catalepsy test, vertical wire mesh; type: in vivo, mouse
Description: Thirty min after an i.p. injection of the compounds, mice were placed on a vertical wire mesh and the latency to move all four paws was recorded.

[25] = tested on: CB1R; experiment: Bimane fluorescence of labeled CB1R; type: biochemical, human; conditions: 10 μM ligand; apo 459 nm
Description: A minimal cysteine version of CB1R was generated[85] where all the cysteine residues (except C256 and C264) were mutated to alanine. […] Excess label was removed using size exclusion chromatography on a Superdex 200 10/300 Increase column in 20 mM HEPES pH 7.5, 100 mM NaCl and 0.01% MNG/0.001% CHS. Bimane-labeled CB1R at […] was incubated with ligands (10 μM) for one hour at room temperature. Fluorescence data was collected at room temperature in a 150 μL cuvette with a FluorEssence v3.8 software on a Fluorolog instrument (Horiba) in photon-counting mode. Bimane fluorescence was measured by excitation at 370 nm with excitation and emission bandwidth passes of 4 nm. The emission spectra were recorded from 410 to 510 nm with 1 nm increment and 0.1 s integration time.

[26] = tested on: mice; experiment: Tail flick, 50 °C water bath; type: in vivo, mouse; conditions: individual animals, sheet Figure7b, test not given
[27] = 0.2 mg/kg, individual animals, FigS11b

panel of 320 non-olfactory GPCRs (Homo sapiens, UniProt Q9Y5Y4), sequence (Q9Y5Y4 whole entry): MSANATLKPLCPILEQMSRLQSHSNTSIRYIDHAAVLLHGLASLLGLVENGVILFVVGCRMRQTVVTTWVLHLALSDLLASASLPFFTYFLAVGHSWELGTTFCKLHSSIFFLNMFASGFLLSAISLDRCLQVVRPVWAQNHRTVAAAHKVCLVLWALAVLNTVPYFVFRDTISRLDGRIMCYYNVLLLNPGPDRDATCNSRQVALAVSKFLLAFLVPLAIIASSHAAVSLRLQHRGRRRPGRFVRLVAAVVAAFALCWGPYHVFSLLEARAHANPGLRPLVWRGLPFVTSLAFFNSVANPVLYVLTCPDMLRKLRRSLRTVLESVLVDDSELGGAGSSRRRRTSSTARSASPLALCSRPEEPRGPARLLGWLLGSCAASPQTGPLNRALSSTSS
panel of 320 non-olfactory GPCRs (Homo sapiens, UniProt O15552), sequence (O15552 whole entry): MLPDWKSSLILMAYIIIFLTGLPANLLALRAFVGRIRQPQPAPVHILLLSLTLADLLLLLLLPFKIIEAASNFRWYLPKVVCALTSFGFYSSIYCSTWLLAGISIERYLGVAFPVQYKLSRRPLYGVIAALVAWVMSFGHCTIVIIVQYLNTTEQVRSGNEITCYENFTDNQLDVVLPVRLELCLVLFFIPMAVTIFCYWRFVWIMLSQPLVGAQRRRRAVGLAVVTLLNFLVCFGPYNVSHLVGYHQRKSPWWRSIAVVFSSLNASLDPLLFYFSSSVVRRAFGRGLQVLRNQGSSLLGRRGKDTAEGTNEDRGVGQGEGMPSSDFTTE
panel of 320 non-olfactory GPCRs (Homo sapiens, UniProt O95838), sequence (O95838 whole entry): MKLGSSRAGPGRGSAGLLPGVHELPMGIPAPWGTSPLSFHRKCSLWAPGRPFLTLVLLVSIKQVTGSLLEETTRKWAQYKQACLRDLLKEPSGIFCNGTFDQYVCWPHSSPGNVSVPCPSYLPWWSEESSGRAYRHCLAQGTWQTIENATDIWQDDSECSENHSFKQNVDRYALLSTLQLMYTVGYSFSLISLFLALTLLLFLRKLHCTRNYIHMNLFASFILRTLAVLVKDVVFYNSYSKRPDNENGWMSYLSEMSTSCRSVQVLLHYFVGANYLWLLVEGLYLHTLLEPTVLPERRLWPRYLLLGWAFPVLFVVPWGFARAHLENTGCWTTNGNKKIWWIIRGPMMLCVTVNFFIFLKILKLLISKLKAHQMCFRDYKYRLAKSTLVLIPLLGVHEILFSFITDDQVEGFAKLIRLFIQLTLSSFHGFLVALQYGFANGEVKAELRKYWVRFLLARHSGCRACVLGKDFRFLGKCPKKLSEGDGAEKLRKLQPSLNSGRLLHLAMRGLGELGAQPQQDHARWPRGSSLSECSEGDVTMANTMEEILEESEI
panel of 320 non-olfactory GPCRs (Homo sapiens, UniProt P28335, I156V/I160V), sequence (P28335 33-458 I156V/I160V): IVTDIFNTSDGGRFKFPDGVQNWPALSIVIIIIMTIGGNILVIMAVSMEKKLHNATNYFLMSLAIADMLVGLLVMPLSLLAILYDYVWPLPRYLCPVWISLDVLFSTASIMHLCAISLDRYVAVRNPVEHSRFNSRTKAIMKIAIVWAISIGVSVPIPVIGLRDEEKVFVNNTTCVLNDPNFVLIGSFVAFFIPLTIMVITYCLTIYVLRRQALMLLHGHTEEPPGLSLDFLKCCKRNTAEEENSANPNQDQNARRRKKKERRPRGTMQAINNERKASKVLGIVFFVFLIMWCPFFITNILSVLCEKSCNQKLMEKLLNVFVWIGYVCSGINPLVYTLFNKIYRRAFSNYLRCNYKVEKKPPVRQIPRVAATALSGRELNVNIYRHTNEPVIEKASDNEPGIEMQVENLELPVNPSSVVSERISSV
panel of 320 non-olfactory GPCRs (Homo sapiens, UniProt Q9NS75), sequence (Q9NS75 whole entry): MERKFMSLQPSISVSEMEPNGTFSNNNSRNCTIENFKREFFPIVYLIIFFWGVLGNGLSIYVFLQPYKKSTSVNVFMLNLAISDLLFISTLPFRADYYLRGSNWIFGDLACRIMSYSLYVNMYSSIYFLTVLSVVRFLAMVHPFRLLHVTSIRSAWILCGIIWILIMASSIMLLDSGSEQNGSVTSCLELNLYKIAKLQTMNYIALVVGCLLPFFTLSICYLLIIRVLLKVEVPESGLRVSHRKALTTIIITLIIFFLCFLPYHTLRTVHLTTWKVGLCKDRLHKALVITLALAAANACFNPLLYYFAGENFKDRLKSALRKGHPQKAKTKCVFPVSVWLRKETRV
panel of 320 non-olfactory GPCRs (Homo sapiens, UniProt Q9GZN0), sequence (Q9GZN0 whole entry): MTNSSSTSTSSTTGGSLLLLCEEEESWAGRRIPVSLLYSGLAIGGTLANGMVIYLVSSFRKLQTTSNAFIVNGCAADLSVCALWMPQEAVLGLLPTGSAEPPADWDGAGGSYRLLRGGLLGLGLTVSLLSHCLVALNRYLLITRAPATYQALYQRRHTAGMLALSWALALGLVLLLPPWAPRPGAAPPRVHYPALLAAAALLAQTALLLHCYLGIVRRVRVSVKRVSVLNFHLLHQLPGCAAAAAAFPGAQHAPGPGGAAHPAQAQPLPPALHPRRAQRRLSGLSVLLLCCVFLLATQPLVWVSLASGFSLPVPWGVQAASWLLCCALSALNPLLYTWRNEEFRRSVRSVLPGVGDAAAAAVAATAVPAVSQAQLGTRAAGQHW
panel of 320 non-olfactory GPCRs (Homo sapiens, UniProt P35367), sequence (P35367 whole entry): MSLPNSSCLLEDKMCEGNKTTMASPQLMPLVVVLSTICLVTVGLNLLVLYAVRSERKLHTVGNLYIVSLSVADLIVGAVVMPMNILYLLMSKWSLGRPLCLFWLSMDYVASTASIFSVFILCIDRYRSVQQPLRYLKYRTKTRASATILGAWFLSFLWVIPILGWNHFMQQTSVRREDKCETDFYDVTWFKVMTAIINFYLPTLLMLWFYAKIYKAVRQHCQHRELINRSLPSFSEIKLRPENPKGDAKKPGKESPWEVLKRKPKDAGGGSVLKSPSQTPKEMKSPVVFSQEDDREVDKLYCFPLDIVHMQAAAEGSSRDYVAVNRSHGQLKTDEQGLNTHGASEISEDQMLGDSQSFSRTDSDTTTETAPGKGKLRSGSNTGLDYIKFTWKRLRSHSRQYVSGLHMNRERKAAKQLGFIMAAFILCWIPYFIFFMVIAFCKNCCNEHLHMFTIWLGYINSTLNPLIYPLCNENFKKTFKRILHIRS
panel of 320 non-olfactory GPCRs (Homo sapiens, UniProt P30872), sequence (P30872 whole entry): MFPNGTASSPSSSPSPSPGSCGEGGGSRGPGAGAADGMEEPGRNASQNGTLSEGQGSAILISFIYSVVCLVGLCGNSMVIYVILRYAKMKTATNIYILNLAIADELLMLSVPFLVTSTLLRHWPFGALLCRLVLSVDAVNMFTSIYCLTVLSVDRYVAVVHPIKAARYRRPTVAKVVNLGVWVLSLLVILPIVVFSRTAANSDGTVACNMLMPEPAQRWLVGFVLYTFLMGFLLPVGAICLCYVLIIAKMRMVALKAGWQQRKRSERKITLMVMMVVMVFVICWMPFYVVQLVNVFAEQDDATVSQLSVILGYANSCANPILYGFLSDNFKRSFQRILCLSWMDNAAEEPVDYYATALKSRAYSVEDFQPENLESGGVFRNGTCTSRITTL
panel of 320 non-olfactory GPCRs (Homo sapiens, UniProt Q5T6X5), sequence (Q5T6X5 19-926): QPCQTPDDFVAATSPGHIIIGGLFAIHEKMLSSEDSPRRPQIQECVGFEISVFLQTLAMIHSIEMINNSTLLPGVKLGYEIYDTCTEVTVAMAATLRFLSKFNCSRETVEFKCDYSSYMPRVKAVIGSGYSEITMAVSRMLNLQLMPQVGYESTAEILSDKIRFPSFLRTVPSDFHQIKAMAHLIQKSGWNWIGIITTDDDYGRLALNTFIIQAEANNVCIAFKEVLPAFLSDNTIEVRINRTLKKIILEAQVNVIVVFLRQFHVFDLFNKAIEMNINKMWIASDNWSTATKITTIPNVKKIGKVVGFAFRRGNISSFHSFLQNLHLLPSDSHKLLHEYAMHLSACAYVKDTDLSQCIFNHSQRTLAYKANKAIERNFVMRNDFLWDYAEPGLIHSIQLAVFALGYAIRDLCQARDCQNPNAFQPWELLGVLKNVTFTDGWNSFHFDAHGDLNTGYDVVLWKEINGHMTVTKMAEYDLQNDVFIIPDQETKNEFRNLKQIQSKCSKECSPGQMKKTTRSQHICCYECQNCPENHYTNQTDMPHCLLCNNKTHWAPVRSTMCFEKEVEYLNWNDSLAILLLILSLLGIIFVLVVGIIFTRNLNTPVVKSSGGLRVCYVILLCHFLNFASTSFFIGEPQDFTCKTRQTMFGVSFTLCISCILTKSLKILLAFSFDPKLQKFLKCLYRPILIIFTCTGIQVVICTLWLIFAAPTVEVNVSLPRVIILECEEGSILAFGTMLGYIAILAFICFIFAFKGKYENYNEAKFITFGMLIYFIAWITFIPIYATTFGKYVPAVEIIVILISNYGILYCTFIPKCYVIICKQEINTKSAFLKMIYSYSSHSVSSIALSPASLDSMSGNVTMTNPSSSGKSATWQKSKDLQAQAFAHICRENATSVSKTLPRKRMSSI
panel of 320 non-olfactory GPCRs (Homo sapiens, UniProt Q96RI9), sequence (Q96RI9 whole entry): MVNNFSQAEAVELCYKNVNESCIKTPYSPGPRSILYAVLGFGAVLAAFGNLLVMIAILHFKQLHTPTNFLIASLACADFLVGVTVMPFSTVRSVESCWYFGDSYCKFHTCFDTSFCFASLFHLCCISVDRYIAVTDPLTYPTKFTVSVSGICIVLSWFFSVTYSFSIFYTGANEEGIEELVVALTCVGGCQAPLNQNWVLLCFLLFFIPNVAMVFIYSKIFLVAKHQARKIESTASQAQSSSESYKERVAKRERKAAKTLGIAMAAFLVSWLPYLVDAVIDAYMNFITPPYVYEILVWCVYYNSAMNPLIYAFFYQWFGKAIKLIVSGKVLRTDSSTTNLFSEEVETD
panel of 320 non-olfactory GPCRs (Homo sapiens, UniProt Q99679), sequence (Q99679 whole entry): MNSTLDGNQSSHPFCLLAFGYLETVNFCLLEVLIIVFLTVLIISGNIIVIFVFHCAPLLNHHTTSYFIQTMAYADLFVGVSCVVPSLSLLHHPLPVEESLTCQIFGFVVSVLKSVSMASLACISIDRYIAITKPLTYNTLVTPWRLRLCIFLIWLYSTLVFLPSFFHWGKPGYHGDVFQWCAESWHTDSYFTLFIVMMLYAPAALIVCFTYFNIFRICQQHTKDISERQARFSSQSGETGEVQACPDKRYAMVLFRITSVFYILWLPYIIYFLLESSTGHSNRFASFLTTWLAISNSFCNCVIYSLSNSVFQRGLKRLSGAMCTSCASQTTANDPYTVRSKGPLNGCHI

SMILES: Cc1cc(C(=O)NC(C)(c2ccco2)c2ccco2)nn1-c1cccc(C(F)(F)F)c1 [‘4936]
- Fold of Basal RLU [1]: 1.3 and 1.4 and 1.2 and 1.1
- Fold of Basal RLU [2]: 1 fold and 0.8 fold and 0.9 fold
- Fold of Basal RLU [3]: 0.7 fold and 1.1 fold
- Fold of Basal RLU [4]: 1.1 fold and 1.5 fold and 1.8 fold
- Fold of Basal RLU [5]: 3.3 fold and 2.7 fold and 2.1 fold and 4 fold
- Fold of Basal RLU [6]: 0.7 and 0.4 and 0.8
- Fold of Basal RLU [7]: 1.3 fold and 1.2 fold and 1.5 fold and 1.8 fold
- Fold of Basal RLU [8]: 0.9 fold and 1.1 fold and 1.2 fold and 1.5 fold
- Fold of Basal RLU [9]: 1.1 fold and 1.4 fold and 1.2 fold
- Fold of Basal RLU [10]: 1 fold and 1.1 fold and 1.4 fold
- Fold of Basal RLU [11]: 1 and 0.8 and 0.6
- Fold of Basal RLU [12]: 0.6 and 0.5
- Fold of Basal RLU [13]: 1.2 fold and 1.3 fold
- Fold of Basal RLU [14]: 0.9 fold and 1.1 fold and 0.6 fold and 1 fold
- Fold of Basal RLU [15]: 0.5 fold and 0.8 fold
- Fold of Basal RLU [16]: 0.8 and 1.3 and 1.4
- Fold of Basal RLU [17]: 2.5 and 1.9 and 1.6 and 2.2
- Fold of Basal RLU [18]: 1.5 and 1.4 and 1.6
- Fold of Basal RLU [19]: 1.5 and 1.7 and 1.4 and 2.3
- Fold of Basal RLU [20]: 1.2 fold and 0.9 fold
- Fold of Basal RLU [21]: 2.3 fold and 1.8 fold and 1.6 fold and 1.5 fold
- Jump [22, 27]: 2 (2×) and 4 and 0 (2×)
- Paw lick [22, 27]: 27 and 43 and 44 and 13 and 16
- Paw shake [22, 27]: 12 (2×) and 25 and 5 and 6
- Paw withdrawal [22, 27]: 24 (2×) and 13 and 23 and 8
- hot plate response normalised to baseline (Figure4b), individual animals ([22]; Dose 0.05 mg/kg): 102.582 and 109.155 and 97.1831 and 135.446 and 112.911
- hot plate response normalised to baseline (Figure4b), individual animals ([22]; Dose 0.1 mg/kg): 324.648 and 182.16 and 233.803 and 158.685 and 147.887 and 257.981 and 154.695 and 178.169 and 197.418 and 155.869
- hot plate response normalised to baseline (Figure4b), individual animals ([22]; Dose 0.2 mg/kg): 174.413 and 176.291 and 188.028 and 167.84 and 94.8357 and 253.991 and 380.986 and 174.648 and 215.493 and 126.291
- hot plate response normalised to baseline (Figure4b), individual animals ([22]; Dose 0.5 mg/kg): 308.685 and 139.202 and 403.052 and 315.493 and 134.742 and 404.695 and 140.141 and 141.549 and 236.62 and 416.667
- lowest dose with significantly increased hot plate latency ([22]; i.p., 30 min after injection): 0.5 mg/kg
- acetone test response after spared nerve injury (Figure5b), individual animals ([23]; Dose 0.2 mg/kg): 92 and 82 and 36 and 30 and 65
- effect on acetone-induced nocifensive behaviors ([23]; spared nerve injury, i.p.): strongly reduced spared nerve injury-induced cold allodynia
- catalepsy (Figure6c), individual animals ([24]; 0.2 mg/kg dose): 0.9 and 0.7 and 0.8 (2×) and 0.4
- catalepsy (Figure6c), individual animals ([24]; 0.5 mg/kg dose): 0.6 (3×) and 0.8 and 0.9
- catalepsy (Figure6c), individual animals ([24]; 1 mg/kg dose): 0.7 and 0.6 and 1.2 and 1.1 (2×)
- catalepsy, latency to move all four paws ([24]; i.p., ‘1350 at 0.2 or 0.5 mg/kg, haloperidol 1.0 mg/kg): does not induce catalepsy at any tested dose up to 1 mg/kg

SMILES: COC(=O)[C@](C)(NC(=O)c1cc(C)n(-c2cccc(C(F)(F)F)c2)n1)c1cccs1 [‘8690]
- bimane spectrum λmax [25]: 459 nm

SMILES: COC(=O)C(C)(NC(=O)c1cc(C)n(-c2cccc(C(F)(F)F)c2)n1)c1cccs1 (stereo not drawn) [‘4042]
- Response relative to baseline (baseline about 100) ([26]; '4042 0.05 mg/kg, 0.05 mg/kg): 262 and 191 and 164 and 198 and 183
- Response relative to baseline (baseline about 100) ([26]; '4042 0.1 mg/kg, 0.1 mg/kg): 419.4 and 155.9 and 181.4 and 122.5 and 239.8
